The values that follow come from patent EP0893123A1, “AGENT FOR USE IN THE PREVENTION AND TREATMENT OF DISORDERS ASSOCIATED WITH VARIOUS TYPES OF AGEING” (Peganov, Eduard Maximovich, priority 1995, dated 1997).

Data set [1] deals with pseudomonas aeruginosa strain N 450. Briefly: Model of sepsis (intramuscular pseudomonas aeruginosa culture in 10% CaCl2). Particulars: D2O consumed 2 days before and 9 days after infection, fig. 8.
Data set [2] deals with hippocampus of old rats. Nature of the data set: Long term potentiation (LTP, model of ageing): electrophysiology of hippocampal slices from treated old rats. The class given is in vivo. Details: PS amplitude on the average: unit not given here. The text has this:
The following examples illustrate the invention: Example 1. Long term potentiation (LTP, model of ageing) The adequacy of the choice of the model is due the following factors: • LTP phenomenon relates to function of memory, being an initial stage in a chain of processes, resulting in formation of traces of long-term memory, since the impairment of LTP is accompanied on the behavioral level by impairment of memory, first of all on current events (Landfield . W., Lynch G., " Impaired monosynaptic potentiation of in vitro hippocmpal slices aged memory-deficient rats., J. Gerontology, 1977, v.32, 5, pp. 523-533; Landfield P.W., Pilter T.A. Applegate M. D., " The aged hippocampus: A model system for studies on mechanisms of behavioral plasticity and brain ageing) The Hippocampus, 1986, v.3, pp. 323-367). • the decrease of the content of various protein structures in old animals is reported (Monaghan D.T.et al is observed., " Age dependent loss of NMDA receptors in rodent brains ", Soc. Neurosci. Abstr.,1988, v.14, p.486; Angeluoci L., Imperato A.. " Age-dependent loss of muscarinic receptors and cholinergic impairment in the rats brain ", Neuroscience Letters, Suppl. 39, 1990, p. 8), • the degree of dementia was reported to correlate with decrease of the membrane surface density of N-methyl-D-aspartate receptors, responsible for LTP, in patients with SDAT (Represa A., et al., " Is senile dementia of the Alzheimer type associated with hippocampal plasticity", Brain research, 1988, v.457, 355-359). the decrease of the rate of overall protein synthesis and, as a consequence, deficits of various proteins and products of non-protein synthesis is characteristic not only for a brain, but also for all organs and systems and are the mostly ascertained facts, concerning ageing, and recognised markers of ageing (Markides S.C. " Protein synthesis and degradation during aging and senescence ", Biol. Rev., 19836 v.58, 343-422; Rattan S. I., " Ageing and discase: proteins as the molecular link ", Perspect. Biol and Med., 1991, v.34, 4. Pp 526-533).
(§1) The experiments were performed on 20 old (29-30 months) outbred female rats. During 21 days control group (9 rats) received usual water as free drinking, and experimental group (11 rats) drank water, containing ? 2O. Control weighing and visual observation of their behaviour was carried out. Then for 6 days both groups received usual water "to wash out " heavy water from the body in order to put both groups in equal conditions in the subsequent experiments. After that the experiment was carried out as follows: each day one control or one experimental animal was narcotised by urethane (1,3 g/kg) and decapitated. The hippocampal slices then were prepared, which were transferred to the special thermostatic chamber, where they were incubated during the experiment. The chamber was perfused at the rate of 2 ml/minute with physiological solution (content in mM: NaCl-124; KCl-5,0; CaCl2-2,5; MgSO4- 2,4; KH2PO4-1,25; NaHCO3-26; glucose-15; pH―7,4-7,5;), saturated with carbogen (95 % O2 and 5 % CO2). The slices were stored for 20-30 minutes at room temperature, then temperature was increased up to 28-29°C. Electrical activity was recorded in 1-1,5 hour after preparation of slices. The recording glass microelectrodes, filled with 2M solution of sodium citrate (electrical resistance 5-25 Mo ? ) were inserted into the layer of pyramidal neurones. Electrical stimulation of Shaffer's collaterals was made through double-barrel glass microelectrodes, filled with physiological solution, with the resistance up to 2 Mo ? , by the rectangular pulses (amplitude up to 40 V, duration 0.2 msec, frequency 0,2-0,3 Hz). Data processing was made on the computer (" Electronics D3-28 ").
Results . On the average in control group weight of the animals was : at the 1-st day 365 ± 37 g, at 21-th day 380 ± 38 g. […]

Data set [3] relates to staphylococcus toxin. Details: species or system outbred white rats. Conditions: rat, in vivo.
The nature of data set [4]: Body weight of old rats during 21 days of drinking water containing D2O. Particulars: for weight of the animals: experimental group. The class given is in vivo. On the procedure:
as §1

The test system of data set [5] is pneumococcus. Nature of the data set: Bacterial shock model (intraperitoneal pneumococcus culture, minimal lethal dose).

Regarding deuterium oxide [heavy water], the “delay of lethal outcomes” value in data set [1] came out at 3 days. Further, the decrease of lethality in data set [1] (vs control) was found to be 3 times. Further, the “LTP occurred (share of rats)” value in data set [2] (7 of 10 old rats of experimental group) was determined as 70%. Moreover, in data set [2] (12 of 18 experimental hippocampal slices), the “Focal evoked potentials (FEP) with preserved pre- and postsynaptic components registered (share of HSs)” value was 67%. In data set [2] (13 of 18 experimental hippocampal slices, 21 days D2O, 6 days wash out), the “spontaneous pulse activity of pyramidal neurons of field CA1 detected (share of HSs)” value is 72%. Also, the “LTP occurred (number of HSs)” value in data set [2] (LTP = PS amplitude after tetanization increased more than by 25 %, sustained more than 30 minutes) is 10 of 18. Moreover, in data set [2] (after second tetanization, example of figure 4), the “increment of the potentiated response” value was found to be 730%. Moreover, the “PS amplitude increased on the average (LTP)” value in data set [2] (after tetanization, experimental group) is on record as 151 % + 26. Further, the “effect of repeated tetanization” value in data set [2] (all cases, experimental group) is “further increase of the potentiated response”. The “persistence of restored LTP after cancellation of treatment” value in data set [2] (last three treated animals tested on 25-th, 26-th and 27-th days after D2O cancellation) is “persisted long (about month) after cancellation of treatment”. In addition, the “PS amplitude on the average” value in data set [2] (population spikes in experimental HSs) is listed as 217 ± 55. In addition, the “average increase of amplitude PS (frequency potentiation)” value in data set [2] (stimulation by frequency of 1 Hz) is 55±31%. In data set [3], the survival of animals is recorded as 40%. For the same substance, the time of dying result in data set [3] is listed as “delay of the time of dying”. The “weight of the animals” value was 375 ± 34 g in data set [4] (at 21-th day of drinking water containing D2O) and 373 ± 25 g in data set [4] (at the first day, old (29-30 months) female rats). Moreover, the “differences in animals weight and in the weight increment between the two groups” value in data set [4] (experimental vs control group, 21 days) was “No statistically significant differences”. Further, the “experimental animals still alive” value in data set [5] (in 48 hours, when 100% of control animals had died, fig. 5) is 50%. Besides, in data set [5] (pneumococcus culture, 10 mice, D2O drunk 2-4 days before, fig. 5), the “dying delayed with respect to control animals” value is reported as “about 24 hours”. The substance further registered a dying delayed in data set [5] (with additional treatment during shock to maintain blood circulation, fig. 6) of 48 h.
